Data on 31 molecules can be found in patent US9475775B2, “Benzazepine dicarboxamide compounds” (Hoffmann-La Roche Inc., priority 2015, dated 2016).

SMILES strings stand for the structures. A value given as a limit tells only on which side of the number the result lay.

Test [1] has as its target human TLR7 (Homo sapiens (Human), UniProt Q9NYK1). Put plainly: HEK-Blue human TLR7 cells, NF-κB SEAP reporter assay. As to conditions: stimulation for 20 hours. Type of test: cell-based. The source says:
(§1) For TLR8 and TLR7 activity testing, HEK-Blue human TLR8 or TLR7 cells (Invivogen, San Diego, Calif., USA) are used, respectively. These cells are designed for studying the stimulation of human TLR8 or TLR7 by monitoring the activation of NF-κB. A SEAP (secreted embryonic alkaline phosphatase) reporter gene is placed under the control of the IFN-b minimal promoter fused to five NF-κB and AP-1-binding sites. Therefore the reporter expression is regulated by the NF-κB promoter upon stimulation of human TLR8 or TLR7 for 20 hours. The cell culture supernatant SEAP reporter activity was determined using Quanti Blue kit (Invivogen, San Diego, Ca, USA) at a wavelength of 640 nm, a detection medium that turns purple/blue in the presence of alkaline phosphatase. EC50 values were determined using Activity Base analysis (ID Business Solution, Limited).
On the technique in general: In a reporter assay the amount or activity of a reporter protein is the signal.

For test [2], the target named is human TLR8 (Homo sapiens (Human), UniProt Q9NR97). Put plainly: HEK-Blue human TLR8 cells, NF-κB SEAP reporter assay. Type of test: cell-based. As to conditions: stimulation for 20 hours.
Excerpt: as §1

Chain of human TLR7 (Q9NYK1 27-1049): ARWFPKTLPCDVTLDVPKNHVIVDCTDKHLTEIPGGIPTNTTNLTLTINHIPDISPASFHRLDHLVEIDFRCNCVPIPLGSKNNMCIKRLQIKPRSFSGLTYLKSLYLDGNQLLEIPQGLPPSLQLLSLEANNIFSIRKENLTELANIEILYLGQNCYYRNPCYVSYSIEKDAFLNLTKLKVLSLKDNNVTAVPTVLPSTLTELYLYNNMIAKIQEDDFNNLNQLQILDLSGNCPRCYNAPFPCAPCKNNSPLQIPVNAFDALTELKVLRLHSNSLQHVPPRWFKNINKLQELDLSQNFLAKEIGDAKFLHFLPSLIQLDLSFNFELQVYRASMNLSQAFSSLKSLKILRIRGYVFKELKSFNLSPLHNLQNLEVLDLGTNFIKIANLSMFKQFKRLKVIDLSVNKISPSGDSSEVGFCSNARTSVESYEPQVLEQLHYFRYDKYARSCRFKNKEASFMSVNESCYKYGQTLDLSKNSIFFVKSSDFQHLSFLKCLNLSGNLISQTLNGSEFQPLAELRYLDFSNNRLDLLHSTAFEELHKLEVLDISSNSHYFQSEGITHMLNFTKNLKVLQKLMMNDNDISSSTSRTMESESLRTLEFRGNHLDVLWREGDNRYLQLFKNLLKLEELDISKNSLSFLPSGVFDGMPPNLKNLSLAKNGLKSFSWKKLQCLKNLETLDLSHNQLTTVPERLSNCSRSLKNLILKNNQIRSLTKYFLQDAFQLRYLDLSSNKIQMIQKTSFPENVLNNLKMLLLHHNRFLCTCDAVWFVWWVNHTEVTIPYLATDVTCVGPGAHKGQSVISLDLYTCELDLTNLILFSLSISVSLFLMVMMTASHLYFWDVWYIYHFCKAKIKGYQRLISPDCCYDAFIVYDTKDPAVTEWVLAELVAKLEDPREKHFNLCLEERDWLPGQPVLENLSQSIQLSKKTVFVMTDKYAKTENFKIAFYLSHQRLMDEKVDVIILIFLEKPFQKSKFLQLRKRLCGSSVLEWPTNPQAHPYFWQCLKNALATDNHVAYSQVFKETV
Chain of human TLR8 (Q9NR97 27-1041): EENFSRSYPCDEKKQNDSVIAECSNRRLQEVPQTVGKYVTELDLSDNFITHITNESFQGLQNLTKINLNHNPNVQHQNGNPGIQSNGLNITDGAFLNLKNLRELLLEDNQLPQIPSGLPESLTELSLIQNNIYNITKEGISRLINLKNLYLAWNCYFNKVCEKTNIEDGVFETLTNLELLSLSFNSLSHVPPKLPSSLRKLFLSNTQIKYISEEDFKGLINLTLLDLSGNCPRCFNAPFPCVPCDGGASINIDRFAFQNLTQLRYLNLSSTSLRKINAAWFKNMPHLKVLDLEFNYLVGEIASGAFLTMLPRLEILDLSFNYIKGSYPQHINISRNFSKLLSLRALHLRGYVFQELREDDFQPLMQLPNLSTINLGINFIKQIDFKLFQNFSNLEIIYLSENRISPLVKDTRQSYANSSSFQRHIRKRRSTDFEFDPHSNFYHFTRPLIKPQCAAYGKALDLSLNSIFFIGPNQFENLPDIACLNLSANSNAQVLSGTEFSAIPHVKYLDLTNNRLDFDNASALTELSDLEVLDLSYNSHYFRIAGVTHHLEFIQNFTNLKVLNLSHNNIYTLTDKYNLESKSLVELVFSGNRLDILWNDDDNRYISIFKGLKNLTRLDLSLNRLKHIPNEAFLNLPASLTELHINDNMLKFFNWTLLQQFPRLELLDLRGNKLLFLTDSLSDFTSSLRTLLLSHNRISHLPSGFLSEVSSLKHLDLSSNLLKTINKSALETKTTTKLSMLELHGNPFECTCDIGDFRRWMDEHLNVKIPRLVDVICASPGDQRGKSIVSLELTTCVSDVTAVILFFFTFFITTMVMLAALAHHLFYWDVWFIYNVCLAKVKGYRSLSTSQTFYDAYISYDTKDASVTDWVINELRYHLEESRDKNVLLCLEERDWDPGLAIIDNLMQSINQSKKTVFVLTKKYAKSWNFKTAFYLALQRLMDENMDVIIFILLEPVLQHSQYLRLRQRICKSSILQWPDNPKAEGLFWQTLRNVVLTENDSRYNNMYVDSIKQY

In general, EC50 refers to the concentration needed to bring the measured effect to its halfway point. Read a high EC50 as lower potency in that assay. Regarding `CCCN(CCC)C(=O)C1=Cc2ccc(C(=O)Nc3cccc(C(=O)N4CCCC4)c3)cc2N=C(N)C1` [Example 15, 2-Amino-N4,N4-dipropyl-N8-[3-(pyrrolidine-1-carbonyl)phenyl]-3H-1-benzazepine-4,8-dicarboxamide], the results for the EC50 in test [1] and in test [2] were > 100000 nM and 2 nM, respectively.

Regarding `CCCN(CCC)C(=O)C1=Cc2ccc(C(=O)Nc3cncc(C(=O)N4CCCC4)c3)cc2N=C(N)C1` [Example 16, 2-Amino-N4,N4-dipropyl-N8-[5-(pyrrolidine-1-carbonyl)-3-pyridyl]-3H-1-benzazepine-4,8-dicarboxamide], the figures for the EC50 in test [1] and in test [2] were > 100000 nM and 14 nM, respectively.

As to `CCCN(CCC)C(=O)C1=Cc2ccc(C(=O)Nc3cccc(CCN)c3)cc2N=C(N)C1` [Example 17, 2-Amino-N8-[3-(2-aminoethyl)phenyl]-N4,N4-dipropyl-3H-1-benzazepine-4,8-dicarboxamide], the results for the EC50 in test [1] and in test [2] were > 100000 nM and 6 nM, respectively.

In the case of `CCCN(CCC)C(=O)C1=Cc2ccc(C(=O)Nc3cncc(C)c3)cc2N=C(N)C1` [Example 18, 2-Amino-N8-(5-methyl-3-pyridyl)-N4,N4-dipropyl-3H-1-benzazepine-4,8-dicarboxamide], the EC50 in test [1] was 34000 nM; in test [2], 2 nM.

Take `CCCN(CCC)C(=O)C1=Cc2ccc(C(=O)Nc3cccc(F)c3)cc2N=C(N)C1` [Example 19, 2-Amino-N8-(3-fluorophenyl)-N4,N4-dipropyl-3H-1-benzazepine-4,8-dicarboxamide]: the EC50 in test [1] was > 100000 nM; in test [2], 5 nM.

Turning to `CCCN(CCC)C(=O)C1=Cc2ccc(C(=O)Nc3cncc(F)c3)cc2N=C(N)C1` [Example 20, 2-Amino-N8-(5-fluoro-3-pyridyl)-N4,N4-dipropyl-3H-1-benzazepine-4,8-dicarboxamide], the EC50 was found to be 46000 nM in test [1] and 3 nM in test [2].

On to `CCCN(CCC)C(=O)C1=Cc2ccc(C(=O)Nc3cccnc3C)cc2N=C(N)C1` [Example 21, 2-Amino-N8-(2-methyl-3-pyridyl)-N4,N4-dipropyl-3H-1-benzazepine-4,8-dicarboxamide], for which the values for the EC50 in test [1] and in test [2] were > 100000 nM and 21 nM, respectively.

In the case of `CCCN(CCC)C(=O)C1=Cc2ccc(C(=O)Nc3ccc(C)nc3)cc2N=C(N)C1` [Example 22, 2-Amino-N8-(6-methyl-3-pyridyl)-N4,N4-dipropyl-3H-1-benzazepine-4,8-dicarboxamide], the EC50 was > 100000 nM in test [1] and 3 nM in test [2].

With `CCCN(CCC)C(=O)C1=Cc2ccc(C(=O)Nc3cc(C)cc(C)c3)cc2N=C(N)C1` [Example 23, 2-Amino-N8-(3,5-dimethylphenyl)-N4,N4-dipropyl-3H-1-benzazepine-4,8-dicarboxamide], the EC50 in test [1] is > 100000 nM; in test [2], 1 nM.

On to `CCCN(CCC)C(=O)C1=Cc2ccc(C(=O)Nc3ccc(CN)cc3)cc2N=C(N)C1` [Example 24, 2-Amino-N8-[4-(aminomethyl)phenyl]-N4,N4-dipropyl-3H-1-benzazepine-4,8-dicarboxamide], for which the EC50 is > 100000 nM in test [1] and 9 nM in test [2].

Regarding `CCCN(CCC)C(=O)C1=Cc2ccc(C(=O)Nc3ccc(CCN)cc3)cc2N=C(N)C1` [Example 25, 2-Amino-N8-[4-(2-aminoethyl)phenyl]-N4,N4-dipropyl-3H-1-benzazepine-4,8-dicarboxamide], the results for the EC50 in test [1] and in test [2] were > 100000 nM and 18 nM, respectively.

For the molecule `CCCN(CCCO)C(=O)C1=Cc2ccc(C(=O)Nc3cccc(C)c3)cc2N=C(N)C1` [Example 26, 2-Amino-N4-(3-hydroxypropyl)-N8-(m-tolyl)-N4-propyl-3H-1-benzazepine-4,8-dicarboxamide], the EC50 in test [1] was > 100000 nM; in test [2], 2 nM.

Turning to `CCCN(CCC)C(=O)C1=Cc2ccc(C(=O)Nc3ccccc3C)cc2N=C(N)C1` [Example 27, 2-Amino-N8-(o-tolyl)-N4,N4-dipropyl-3H-1-benzazepine-4,8-dicarboxamide], the EC50 in test [1] is 28000 nM; in test [2], 5 nM.

As to `CCCN(CCC)C(=O)C1=Cc2ccc(C(=O)Nc3ccc(C)cc3)cc2N=C(N)C1` [Example 28, 2-Amino-N4,N4-dipropyl-N8-(p-tolyl)-3H-1-benzazepine-4,8-dicarboxamide], the results for the EC50 in test [1] and in test [2] were > 100000 nM and 1 nM, respectively.

`CCCN(CCC)C(=O)C1=Cc2ccc(C(=O)Nc3cccc(CC)c3)cc2N=C(N)C1` [Example 29, 2-Amino-N8-(3-ethylphenyl)-N4,N4-dipropyl-3H-1-benzazepine-4,8-dicarboxamide]: the EC50 in test [1] is > 100000 nM; in test [2] it was 1 nM.

For `CCCN(CCC)C(=O)C1=Cc2ccc(C(=O)Nc3cccc(OC)c3)cc2N=C(N)C1` [Example 30, 2-Amino-N8-(3-methoxyphenyl)-N4,N4-dipropyl-3H-1-benzazepine-4,8-dicarboxamide], the values for the EC50 in test [1] and in test [2] were > 100000 nM and 2 nM, respectively.

As to `CCCN(CCC)C(=O)C1=Cc2ccc(C(=O)Nc3cccc(C(F)(F)F)c3)cc2N=C(N)C1` [Example 31, 2-Amino-N4,N4-dipropyl-N8-[3-(trifluoromethyl)phenyl]-3H-1-benzazepine-4,8-dicarboxamide], the EC50 is > 100000 nM in test [1] and 5 nM in test [2].

For `CCCN(CCC)C(=O)C1=Cc2ccc(C(=O)Nc3cccc(Cl)c3)cc2N=C(N)C1` [Example 32, 2-Amino-N8-(3-chlorophenyl)-N4,N4-dipropyl-3H-1-benzazepine-4,8-dicarboxamide], the EC50 in test [1] was > 100000 nM; in test [2], 2 nM.

As to `CCCN(CCC)C(=O)C1=Cc2ccc(C(=O)Nc3cncc(CN)c3)cc2N=C(N)C1` [Example 33, 2-Amino-N8-[5-(aminomethyl)-3-pyridyl]-N4,N4-dipropyl-3H-1-benzazepine-4,8-dicarboxamide], the EC50 in test [1] is > 100000 nM; in test [2] it was 2 nM.

As for `CCCN(CCC)C(=O)C1=Cc2ccc(C(=O)Nc3ccnnc3)cc2N=C(N)C1` [Example 34, 2-Amino-N4,N4-dipropyl-N8-pyridazin-4-yl-3H-1-benzazepine-4,8-dicarboxamide], the figures for the EC50 in test [1] and in test [2] were > 100000 nM and 2 nM, respectively.

For `CCCN(CCC)C(=O)C1=Cc2ccc(C(=O)Nc3ccc(OCC)nc3)cc2N=C(N)C1` [Example 35, 2-Amino-N8-(6-ethoxy-3-pyridyl)-N4,N4-dipropyl-3H-1-benzazepine-4,8-dicarboxamide], the figures for the EC50 in test [1] and in test [2] were > 100000 nM and 1 nM, respectively.

`CCCN(CCC)C(=O)C1=Cc2ccc(C(=O)Nc3cccc(CN)c3)cc2N=C(N)C1` [Example 36, 2-Amino-N8-[3-(aminomethyl)phenyl]-N4,N4-dipropyl-3H-1-benzazepine-4,8-dicarboxamide]: the results for the EC50 in test [1] and in test [2] were > 100000 nM and 31 nM, respectively.

For the molecule `CCCN(CCC)C(=O)C1=Cc2ccc(C(=O)Nc3ccn(C)n3)cc2N=C(N)C1` [Example 37, 2-Amino-N8-(1-methylpyrazol-3-yl)-N4,N4-dipropyl-3H-1-benzazepine-4,8-dicarboxamide], the EC50 came out at 38000 nM in test [1] and 23 nM in test [2].

`CCCN(CCC)C(=O)C1=Cc2ccc(C(=O)Nc3ncco3)cc2N=C(N)C1` [Example 38, 2-Amino-N8-oxazol-2-yl-N4,N4-dipropyl-3H-1-benzazepine-4,8-dicarboxamide]: the values for the EC50 in test [1] and in test [2] were 45000 nM and 29 nM, respectively.

`CCCN(CCCO)C(=O)C1=Cc2ccc(C(=O)Nc3cccnc3)cc2N=C(N)C1` [Example 39, 2-Amino-N4-(3-hydroxypropyl)-N4-propyl-N8-(3-pyridyl)-3H-1-benzazepine-4,8-dicarboxamide]: the values for the EC50 in test [1] and in test [2] were > 100000 nM and 29 nM, respectively.

In the case of `CCCN(CCC)C(=O)C1=Cc2ccc(C(=O)Nc3cncc(OC)c3)cc2N=C(N)C1` [Example 40, 2-Amino-N8-(5-methoxy-3-pyridyl)-N4,N4-dipropyl-3H-1-benzazepine-4,8-dicarboxamide], the EC50 in test [1] is > 100000 nM; in test [2] it was 1 nM.

As for `C#CCN(CCC)C(=O)C1=Cc2ccc(C(=O)Nc3cccc(C)c3)cc2N=C(N)C1` [Example 41, 2-Amino-N8-(m-tolyl)-N4-propyl-N4-prop-2-ynyl-3H-1-benzazepine-4,8-dicarboxamide], the EC50 was > 100000 nM in test [1] and 6 nM in test [2].

`CCCCN(CCCC)C(=O)C1=Cc2ccc(C(=O)Nc3cccc(C)c3)cc2N=C(N)C1` [Example 42, 2-Amino-N4,N4-dibutyl-N8-(m-tolyl)-3H-1-benzazepine-4,8-dicarboxamide]: the EC50 in test [1] was > 100000 nM; in test [2] it was 17 nM.

For the molecule `CCCN(CCC)C(=O)C1=Cc2ccc(C(=O)Nc3cc(C)cc(CN)c3)cc2N=C(N)C1` [Example 43, 2-Amino-N8-[3-(aminomethyl)-5-methyl-phenyl]-N4,N4-dipropyl-3H-1-benzazepine-4,8-dicarboxamide], the values for the EC50 in test [1] and in test [2] were 61000 nM and 15 nM, respectively.

For the molecule `CCCN(CCC)C(=O)C1=Cc2ccc(C(=O)Nc3cncc(OCC)c3)cc2N=C(N)C1` [Example 44, 2-Amino-N8-(5-ethoxy-3-pyridyl)-N4,N4-dipropyl-3H-1-benzazepine-4,8-dicarboxamide], the values for the EC50 in test [1] and in test [2] were 12000 nM and 1 nM, respectively.

`CCCN(CCC)C(=O)C1=Cc2ccc(C(=O)Nc3cccc(OCCOCCN)c3)cc2N=C(N)C1` [Example 45, 2-Amino-N8-[3-[2-(2-aminoethoxy)ethoxy]phenyl]-N4,N4-dipropyl-3H-1-benzazepine-4,8-dicarboxamide]: the EC50 in test [1] was > 100000 nM; in test [2], 26 nM.
